{"source": "paper PMC5384220", "about": "(Nature Communications, 2017)", "key": {"[1]": {"biological_target": "T1, full-length KDM4A (residues 1-1,064) (Homo sapiens, UniProt O75164)", "T1 construct": "full-length KDM4A (residues 1–1,064) purified from HEK293T cells; made in house; host or cells: HEK293T (transient transfection, anti-FLAG M2 immunoprecipitation)", "T1 sequence (O75164 1-1064)": "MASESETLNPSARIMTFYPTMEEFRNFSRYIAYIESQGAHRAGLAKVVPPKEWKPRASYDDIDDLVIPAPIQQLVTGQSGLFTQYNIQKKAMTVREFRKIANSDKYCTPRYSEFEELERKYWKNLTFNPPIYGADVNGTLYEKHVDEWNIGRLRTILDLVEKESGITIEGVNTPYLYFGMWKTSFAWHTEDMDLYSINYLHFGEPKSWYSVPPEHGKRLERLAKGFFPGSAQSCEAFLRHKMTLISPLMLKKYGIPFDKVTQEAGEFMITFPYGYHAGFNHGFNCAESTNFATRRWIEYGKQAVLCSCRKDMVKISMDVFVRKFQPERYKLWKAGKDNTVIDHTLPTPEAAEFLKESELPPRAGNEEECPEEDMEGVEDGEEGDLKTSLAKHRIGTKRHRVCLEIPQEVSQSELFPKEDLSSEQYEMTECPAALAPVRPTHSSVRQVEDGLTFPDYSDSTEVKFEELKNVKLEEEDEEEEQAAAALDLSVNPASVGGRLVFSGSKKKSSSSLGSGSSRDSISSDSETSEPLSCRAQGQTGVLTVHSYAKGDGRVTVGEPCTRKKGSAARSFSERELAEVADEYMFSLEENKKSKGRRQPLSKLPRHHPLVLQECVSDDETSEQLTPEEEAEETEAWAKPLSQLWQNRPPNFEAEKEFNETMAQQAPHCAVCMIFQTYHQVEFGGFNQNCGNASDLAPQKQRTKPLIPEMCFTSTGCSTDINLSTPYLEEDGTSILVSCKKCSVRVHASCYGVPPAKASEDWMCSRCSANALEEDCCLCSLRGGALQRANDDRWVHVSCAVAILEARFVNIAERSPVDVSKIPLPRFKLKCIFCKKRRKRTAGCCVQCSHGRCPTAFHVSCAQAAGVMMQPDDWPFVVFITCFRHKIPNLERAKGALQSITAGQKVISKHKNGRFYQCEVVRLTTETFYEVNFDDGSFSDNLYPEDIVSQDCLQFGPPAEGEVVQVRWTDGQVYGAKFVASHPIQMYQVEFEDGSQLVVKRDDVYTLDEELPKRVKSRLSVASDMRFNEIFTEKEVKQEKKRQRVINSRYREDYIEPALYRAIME", "assay": "MALDI-TOF MS demethylation assay with full-length KDM4A", "format": "biochemical", "conditions": "CP2 10 µM; H3K9me3 and H3K36me3 peptides 10 µM; 1 h 37°C", "text": "N-terminally Hexa-His-tagged KDM4A (His-KDM4A1–359) was produced and purified as described. The KDM4A gene encoding for KDM4A protein (residues 1-359) was cloned into the pNIC-Bio3 plasmid, which incorporates a C-terminal AviTag and expressed with biotin supplement in BL21(DE3)Rosetta co-transfected with pCDF-BirA[32]. His-KDM4A with biotin (His-KDM4A-Bio) was purified using nickel affinity chromatography. Complete (>95%) biotinylation of KDM4A was confirmed using electrospray ionization–MS (Waters Micromass LCT Premier). […] The full-length FLAG-tagged KDM4A1–1,064 (ref. [15]) was produced in HEK293T cells. HEK293T cells were grown to 80% confluency in DMEM medium (Sigma) supplemented with Glutamax (Life Technologies), 10% fetal bovine serum (FBS, Sigma). FLAG-tagged KDM4A was transfected using polyethyleneimine. Cells were harvested after 48 h, washed with PBS (Sigma) and lysed (45 min, 4 °C) in 50 mM HEPES (pH 7.5), 150 mM NaCl buffer containing protease inhibitor cocktail (Sigma), 10 μM DNase (Sigma) and 0.1% NP40 (Roche). FLAG-tagged KDM4A was purified by immunoprecipitation using anti-FLAG M2 magnetic beads (Sigma) and washed in 50 mM HEPES (pH 7.5) 150 mM NaCl. The final wash was performed in 50 mM HEPES (pH 7.5) and the resin was used as an enzyme source for the full-length KDM4A.\nKDM4A in vitro. […]\n(pH 7.5) at 37°C for 1 h. The assay products were analysed by MALDI-TOF MS. […]"}, "His-KDM4A1-359-Bio": {"biological_target": "T2, His-KDM4A1-359-Bio (Homo sapiens, UniProt O75164)", "T2 construct": "KDM4A protein (residues 1-359) was cloned into the pNIC-Bio3 plasmid, which incorporates a C-terminal AviTag; made in house; host or cells: E. coli BL21(DE3)Rosetta co-transfected with pCDF-BirA", "T2 sequence (O75164 1-359)": "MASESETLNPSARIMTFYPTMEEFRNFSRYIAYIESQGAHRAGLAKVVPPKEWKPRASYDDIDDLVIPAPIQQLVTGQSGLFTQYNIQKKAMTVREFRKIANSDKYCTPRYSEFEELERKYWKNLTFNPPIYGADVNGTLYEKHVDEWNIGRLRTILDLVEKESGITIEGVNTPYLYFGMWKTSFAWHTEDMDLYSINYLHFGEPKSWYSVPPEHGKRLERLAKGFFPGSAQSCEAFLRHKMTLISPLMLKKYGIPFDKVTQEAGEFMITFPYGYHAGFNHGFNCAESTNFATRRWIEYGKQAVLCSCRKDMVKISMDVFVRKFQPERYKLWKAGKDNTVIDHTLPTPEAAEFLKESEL", "assay": "Biolayer interferometry binding to KDM4A", "experimental": "(§1) The formaldehyde dehydrogenase coupled KDM assay was used to determine the mode of inhibition[34], using 0.5 μM His-KDM4A1–359. Prism 5.0 (GraphPad) was used to fit in mix-mode inhibition, to determine the kinetic parameters. Binding constants for CPs and H3(1–15)K9me3 were measured using biolayer interferometry (OctetRed 384, ForteBio) in buffer (50 mM HEPES (pH 7.5), 150 mM NaCl, 10 μM ammonium iron(II) sulphate). His-KDM4A1–359-Bio (70 nM) was immobilized onto super streptavidin biosensor and subjected to different peptide concentrations in buffer. Data analysis was performed using ForteBio Data Aalysis (v6.4).\n(§2) KDM4A1-359 was immobilized and analysed for binding to peptides at different concentrations.\n(§3) The concentration of KDM4A in the assay mixture was 0.5 µM."}, "His-KDM4A1-359": {"biological_target": "T3, His-KDM4A1-359 (Homo sapiens, UniProt O75164)", "T3 construct": "using 0.5 μM His-KDM4A1–359; made in house", "T3 sequence (O75164 1-359)": "T2 sequence (O75164 1-359)", "assay": "Formaldehyde dehydrogenase coupled KDM assay (mode of inhibition)", "format": "biochemical", "experimental": "as §1, §2, §3"}}}
{"sequence": "DYVYNTRSGWRWYTC [CP2]", "values": [{"measurement": "Inhibition of demethylation by full-length KDM4A", "setting": "[1]", "value": "inhibits"}, {"measurement": "KDM4A Binding kdiss", "setting": "His-KDM4A1-359-Bio", "value": 0.00407, "unit": "s⁻¹"}, {"measurement": "KDM4A Binding kon", "setting": "His-KDM4A1-359-Bio", "value": 137000, "unit": "M⁻¹ s⁻¹"}, {"measurement": "α (mixed-mode inhibition parameter)", "setting": "His-KDM4A1-359; FDH assay, 0.5 µM KDM4A", "value": 4.73}, {"measurement": "Mode of inhibition with respect to H3K9me3", "setting": "His-KDM4A1-359; kinetic analyses", "value": "competitive inhibitor"}]}
